Literature values in patent publication US7122568B1, “Use of low-dose PDT to inhibit restenosis” (QLT, Inc., priority 1999, dated 2006).
Where two headings read alike, the source gives them in different places.

What was measured:
[1] = system: rat carotid artery
[2] = system: porcine model; settings: 0.3 mg/kg injected four hours prior to endothelial denudation; external irradiation 20 J/cm2 of 652 nm
[3] = system: normal rabbit carotid arteries; settings: systemic administration 7 days after denudation, external irradiation two days later; five weeks after PDT
[4] = system: rabbit arteries injured by endothelial denudation; settings: systemic administration after injury, 120 or 240 J/cm2 irradiation 24 hours later
[5] = system: normal rat carotid arteries; settings: systemic administration, external irradiation; PDT on days 2 and 7 after denudation, read on day 14

benzoporphyrin derivative monoacid ring A [BPD-MA]
effect on IH ([1]; 0.5 μg/ml local delivery, 50 and 100 J/cm2 of 690 nm (Stages I and II)): little effect on reducing IH
effect on IH ([1]; 0.5 μg/ml local delivery, 100 J/cm2 of 690 nm (Stage II)): induction of significant IH
effect on IH ([1]; 25 μg/ml local delivery, 50 J/cm2 of 690 nm (Stage III)): inhibit IH
photothrombosis ([1]; 25 μg/ml local delivery, 100 J/cm2 of 690 nm (Stage IV)): induce photothrombosis

Oc1cccc(-c2c3nc(c(-c4cccc(O)c4)c4ccc([nH]4)c(-c4cccc(O)c4)c4nc(c(-c5cccc(O)c5)c5ccc2[nH]5)CC4)C=C3)c1 [m-THPC, metatetrahydroxyphenyl-chlorin]
effect on intimal area [2]: significant increase of intimal area

Photofrin™
effect on induced IH response (ratio of IH area to normalized area enclosed by the IEL) [3]: effective in reducing the induced IH response
effect on IH [4]: prevention of IH

chloraluminum-sulfonated phthalocyanine [CASPc]
effect on induced IH response [5]: effective in inhibiting the induced IH response
